pIC50: −log10 of the molar value. Where only a bound is given, the exact number is not on record here.

The target of the first assay is T1, human ML1B receptor (Homo sapiens, UniProt P49286).
T1 construct: expressed in transfected cells; host or cells: NIH 3T3 cells (stably transfected; obtained from S. M. Reppert)
T1 sequence (P49286 1-362): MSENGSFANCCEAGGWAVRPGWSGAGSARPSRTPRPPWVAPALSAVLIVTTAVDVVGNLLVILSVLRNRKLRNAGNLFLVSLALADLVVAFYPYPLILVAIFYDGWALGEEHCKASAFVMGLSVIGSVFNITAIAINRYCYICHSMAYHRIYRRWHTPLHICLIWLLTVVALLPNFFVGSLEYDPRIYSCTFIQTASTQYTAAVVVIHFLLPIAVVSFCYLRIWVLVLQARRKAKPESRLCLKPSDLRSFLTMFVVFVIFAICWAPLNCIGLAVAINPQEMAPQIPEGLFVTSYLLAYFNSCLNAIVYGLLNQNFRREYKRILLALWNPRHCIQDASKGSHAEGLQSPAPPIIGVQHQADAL
Put plainly: Binding to human melatonergic receptors (2-[125I]-iodomelatonin, NIH 3T3 cell membranes, human ML1B receptor). Conditions: IC50 class; 200 pM 2-[125I]-iodomelatonin, 37° C., 1 hour, membranes of NIH 3T3 cells transfected with human ML1B receptor; read-out: Melatonin Binding. As to the method:
Measurement of Binding to Human Melatonergic Receptors The melatonergic binding affinities of various compounds of Formula I were determined by the method of Reppert, S. M., Weaver, D. R., and Ebisawa, R. (Neuron, Volume 13, 1177-1185, 1994). The assays were incubated at 37° C. for 1 hour, and the reaction was terminated by filtration. The filters were washed with wash buffer. […] The reagents, membrane and other techniques used in the melatonergic binding assays are more fully described below: […] Reagents: (a) 50 mM Tris buffer containing 12.5 mM MgCl2, and 2 mM EDTA, pH 7.4 at 37° C. (b) Wash buffer: 20 mM Tris base containing 2 mM MgCl2. pH 7.4 at room temperature. (c) Melatonin (10^-5 M final concentration). (d) 2-[^125 I]-Iodomelatonin, 200 pM final concentration Source: NEN 2. Membrane preparation: NIH 3T3 cells stably transfected with the human ML1B receptor were obtained from S. M. Reppert and maintained. Cells were pelleted when confluent. The supernatant was discarded and the pellets frozen. For preparing membrane homogenates, the pellets are thawed on ice and resuspended in TME buffer, Tris base, MgCl2, EDTA (pH 7.4 at 37° C.), supplemented with aprotinin, leupeptin, and […]. The cells were then homogenized and centrifuged. The resulting pellet was resuspended with a Dounce homogenizer in TME and frozen. At assay, a small aliquot was thawed on ice and resuspended in TME buffer.
In the case of `CC(=O)NCCc1c(Cc2ccccc2)[nH]c2ccccc12` [Luzindole], the pIC50 is 6.60 to 7.00.

Consider `COc1ccc2c(c1)C(C1CCN(C(=O)C3CC3)CC1)CC2` (single isomer, unassigned; (-)) [(-)-1-(Cyclopropylcarbonyl)-4-(6-methoxy-indan-1-yl)piperidine], for which the pIC50 was greater than 8.00.

For the compound `COc1ccc2c(c1)C(C1CCN(C(=O)c3cccs3)CC1)CC2` (stereo not drawn) [4-(6-Methoxy-indan-1-yl)-1-[(2-thienyl)carbonyl]piperidine], the pIC50 was greater than 8.00.

Consider `COCC(=O)N1CCC(C2CCc3ccc(OC)cc32)CC1` (single isomer, unassigned; (+)) [(+)-1-(2-Methoxyacetyl)-4-(6-methoxy-indan-1-yl)piperidine], for which the pIC50 was 6.60 to 7.00.

Regarding `CCC(=O)N1CCC(C2CCc3cc(F)c(OC)cc32)CC1` (stereo not drawn) [4-(5-Fluoro-6-methoxy-indan-1-yl)-1-propanoylpiperidine], the pIC50 was greater than 8.00.

Consider `CNC(=O)N1CCC(C2CCc3ccc(OC)cc32)CC1` (single isomer, unassigned; (+)) [(+)-N-Methyl-4-(6-methoxy-indan-1-yl)piperidine-1-carboxamide], for which the pIC50 was 7.00 to 8.00.

Regarding `CCNC(=O)N1CCC(C2CCc3ccc(CC)cc32)CC1` (stereo not drawn) [N-Ethyl-4-(6-ethyl-indan-1-yl)piperidine-1-carboxamide], the pIC50 was greater than 8.00.

With `CCC(C)C(=O)N1CCC(C2CCc3ccc(OC)cc32)CC1` (stereo not drawn) [4-(6-Methoxy-indan-1-yl)-1-(2-methylbutanoyl)piperidine], the pIC50 was greater than 8.00.

On to `COc1ccc2c(c1)C(C1CCN(C(=O)c3sccc3Cl)CC1)CC2` (stereo not drawn) [1-[(3-Chloro-thien-2-yl)carbonyl]-4-(6-methoxy-indan-1-yl)-piperidine], for which the pIC50 was greater than 8.00.

For the compound `COc1ccc2c(c1)C(C1CCN(C(=O)c3cccn3C)CC1)CC2` (stereo not drawn) [4-(6-Methoxy-indan-1-yl)-1-[(1-methyl-pyrrol-2-yl)carbonyl]piperidine], the pIC50 was greater than 8.00.

In the case of `O=C(C1CC1)N1CCC(C2CCc3ccc(F)cc32)CC1` (stereo not drawn) [1-(Cyclopropylcarbonyl)-4-(6-fluoro-indan-1-yl)piperidine], the pIC50 is greater than 8.00.

For the compound `COc1ccc2c(c1)C(C1CCN(C(=O)CSC)CC1)CC2` (stereo not drawn) [4-(6-Methoxy-indan-1-yl)-1-(2-methylthioacetyl)piperidine], the pIC50 was greater than 8.00.

`COc1ccc2c(c1)C(C1CCN(C(=O)C3CC3)CC1)CC2` (single isomer, unassigned; (+)) [(+)-1-(Cyclopropylcarbonyl)-4-(6-methoxy-indan-1-yl)piperidine]: the pIC50 is greater than 8.00.

Take `COc1ccc2c(c1)C(C1CCN(C(=O)C3CC3)CC1)CC2` (stereo not drawn) [1-Cyclopropylcarbonyl-4-(6-methoxy-indan-1-yl)piperidine]: the pIC50 is greater than 8.00.

Regarding `CCNC(=O)N1CCC(C2CCc3ccc(OC)cc32)CC1` (single isomer, unassigned; (+)) [(+)N-Ethyl-4-(6-methoxy-indan-1-yl)piperidine-1-carboxamide], the pIC50 is 7.00 to 8.00.

For `CCNC(=O)N1CCC(C2CCc3ccc(OCCCc4cccc(OC)c4)cc32)CC1` (stereo not drawn) [N-Ethyl-4-[6-[3-(3-methoxyphenyl)propyloxy]-indan-1-yl]piperidine-1-carboxamide], the pIC50 is 7.00 to 8.00.

With `COc1ccc2c(c1)C(C1CCN(C(=O)c3sccc3C)CC1)CC2` (stereo not drawn) [4-(6-Methoxy-indan-1-yl)-1-[(3-methyl-thien-2-yl)carbonyl]piperidine], the pIC50 is greater than 8.00.

As for `CCNC(=O)N1CCC(C2CCc3ccccc32)CC1` (stereo not drawn) [N-Ethyl-4-(indan-1-yl)-piperidine-1-carboxamide], the pIC50 was 7.00 to 8.00.

For `COc1ccc2c(c1)C(C1CCN(C(=O)C3CC3)CC1)CCC2` (stereo not drawn) [1-(Cyclopropylcarbonyl)-4-(7-methoxy-tetralin-1-yl)piperidine], the pIC50 is greater than 8.00.

`COc1ccc2c(c1)C(C1CCN(C(=O)C3=CCCC3)CC1)CC2` (stereo not drawn) [1-[(Cyclopent-1-en-1-yl)carbonyl]-4-(6-methoxy-indan-1-yl)piperidine]: the pIC50 is greater than 8.00.

On to `COc1cccc(CCCOc2ccc3c(c2)C(C2CCN(C(=O)C4CC4)CC2)CC3)c1` (stereo not drawn) [1-(Cyclopropylcarbonyl)-4-[6-[3-(3-methoxyphenyl)propyloxy]-indan-1-yl]piperidine], for which the pIC50 was 7.00 to 8.00.

`CCC(=O)N1CCC(C2CCc3ccc(OC)cc32)CC1` (single isomer, unassigned; (-)) [(-)-4-(6-Methoxy-indan-1-yl)-1-propanoylpiperidine]: the pIC50 is greater than 8.00.

Consider `COc1cc2c(cc1F)CCC2C1CCN(C(=O)C2CC2)CC1` (stereo not drawn) [1-(Cyclopropylcarbonyl)-4-(5-fluoro-6-methoxy-indan-1-yl)piperidine], for which the pIC50 was greater than 8.00.

In the case of `CCCCC(=O)N1CCC(C2CCc3ccc(OC)cc32)CC1` (single isomer, unassigned; (-)) [(-)-4-(6-Methoxy-indan-1-yl)-1-pentanoylpiperidine], the pIC50 was greater than 8.00.

Consider `COc1ccc2c(c1)C(C1CCN(C(=O)c3ccc[nH]3)CC1)CC2` (stereo not drawn) [4-(6-Methoxy-indan-1-yl)-1-[(1H-pyrrol-2-yl)carbonyl]piperidine], for which the pIC50 was greater than 8.00.

`CNC(=O)N1CCC(C2CCc3ccc(F)cc32)CC1` (stereo not drawn) [N-Methyl-4-(6-fluoro-indan-1-yl)piperidine-1-carboxamide]: the pIC50 was 7.00 to 8.00.

For `CNC(=O)N1CCC(C2CCc3ccc(OC)cc32)CC1` (stereo not drawn) [N-Methyl-4-(6-methoxy-indan-1-yl)piperidine-1-carboxamide], the pIC50 is greater than 8.00.

For the compound `COc1ccc2c(c1)C(C1CCN(C=O)CC1)CC2` (single isomer, unassigned; (+)) [(+)-1-Formyl-4-(6-methoxy-indan-1-yl)piperidine], the pIC50 was 7.00 to 8.00.

System in the next assay: not given
Test: not given
Conditions: literature: Dubocovich et al, European Journal of Pharmacology, 182, (1990), pages 313-325; cited from earlier work.
For `CC(=O)NCCc1c(Cc2ccccc2)[nH]c2ccccc12` [Luzindole], the antidepressant-like effects entry is “exhibits antidepressant-like effects”.

The subject of the next assay is human melatonin receptors.
Test: not given
Conditions: result in words, luzindole, background section; cited from earlier work.
On to `CC(=O)NCCc1c(Cc2ccccc2)[nH]c2ccccc12` [Luzindole], for which the “binds to human melatonin receptors” value is “binds to human melatonin receptors”.

Source of the values: patent US5703239A, “Indanylpiperidines as melatonergic agents” (Bristol-Myers Squibb Company, priority 1996, dated 1997).
